Results reported in article PMC7073229, “Novel Quinoline Compounds Active in Cancer Cells through Coupled DNA Methyltransferase Inhibition and Degradation” (Cancers, 2020).

Legend:
[1] = tested on: peripheral blood B lymphocyte AHH1 cells; assay: Differential toxicity, antiproliferative assay; type: cell-based; settings: Homo sapiens, AHH-1; 48 h treatment; read-out: IC50 against AHH1 cells
Description: U937 histiocytic lymphoma, HL60 acute promyelocytic leukemia, H1299 lung adenocarcinoma, MCF7 breast carcinoma, HT1080 fibrosarcoma, M14 melanoma, HeLa epithelial cervix carcinoma and peripheral blood B lymphocyte AHH1 human cell lines were obtained from the Deutsche Sammlung für Mikroorganismen and Zellkulturen (DSZM, Braunschweig, Germany) and were maintained in RPMI 1640 medium contained 10% fetal bovine serum (FBS), 2 mM L-glutamine, and antibiotics in a humidified atmosphere with 5% CO2 at 37 °C. […]
Then, increasing concentrations of different compounds (ranging from 0.01 to 100 μM) were added, and cell proliferation was evaluated by a MTT assay after 48 h. […] The effect of compounds was evaluated using the CellTiter-Glo luminescent cell viability assay (Promega, Madison, WI, USA) according to the manufacturer’s instructions. […] After treatments, MTT solution was added for 3 h at 0.5 mg/mL, the obtained crystals were dissolved in DMSO (Sigma-Aldrich, Milan, Italy), and the absorbance was read at a wavelength of 570 nm with reader TECAN M-200. […]
IC50 values of compounds against cellular viability were determined by using nonlinear regression fitting curves with GraphPad Prism 8. […]

[2] = tested on: methylated UCHL1 promoter (pUCHL1) in HCT116 cells; assay: UCHL1 promoter demethylation assay (EGFP induction, FACS); type: cell-based, human; settings: five days
Description: The assay was performed as described in [29]. Briefly, human colon cancer HCT116 (ATCC, VA, USA) cells were grown in Dulbecco’s Modified Eagle Medium (DMEM; Euroclone, Milan, Italy) supplemented with 10% fetal bovine serum (FBS; Euroclone, Milan, Italy), 2 mM L-glutamine (Euroclone), and antibiotics (100 U/mL penicillin, 100 µg/mL streptomycin) (Euroclone). The pUMLIEP vector (composed by MetLuc-IRES-EGFP construct upon the control of the ubiquitin carboxyl-terminal hydrolase L1 (UCHL1)) was linearized and methylated by with ClaI and SssI-methylase enzymes (New England Biolabs, Milan, Italy). After, methylated pUMLIEP was transfected into HCT116 cells following the protocol described in [30]. […] On day 5, cells were observed under by a fluorescent microscope (Cytation 5 Cell Imaging Multi-Mode Reader (BioTeK Milan, Italy) and BD Accuri flow cytometers. Nuclei were counterstained with DAPI (10 µg/mL, Invitrogen, Tournai, Belgium).

[3] = target: T1, human DNMT1 (hDNMT1) (Homo sapiens, UniProt P26358); assay: DNMT1 assay ([methyl-3H]SAM, Flashplate); type: biochemical; settings: mean of at least two independent experiments; read-out: Enzyme Inhibition (EC50 ± SD) hDNMT1
T1 construct: His; made in house
Description: His-DNMT1 (182 kDa, human) was cloned, expressed, and purified as described by Lee et al.. The DNMT1 assay was performed according to Gros et al.. […] The reaction was incubated 2 h at 37 °C, then 8 µL of the solution are transferred into a streptavidin 96-well scintillant coated Flashplate containing 190 µL of 20 mM SAH in 50 mM Tris–HCl (pH 7.4). The Flashplate is agitated for 1 h at room temperature and washed. The plate is read with TopCount (PerkinElmer). In this assay, the negative and positive controls were defined as wells without enzyme and wells with only DMSO, respectively.

[4] = target: AurA/Aur2 kinase (h) (Homo sapiens, UniProt O14965); assay: Kinase inhibitory assay (panel); type: biochemical; settings: read-out: % inhibition at 10 µM
Description: (§1) Experimental procedure of kinase inhibitory assays
(§2) The test compound, reference compound or water (control) were mixed with the enzyme (for the exact amount see table below) in the appropriate buffer. Thereafter, the reaction was initiated by adding the required amount of the appropriate substrate and of ATP, and the mixture is incubated at room temperature (variable reaction time, see table below). For control basal measurements, the enzyme was omitted from the reaction mixture. Following incubation, the reaction was stopped by adding 13 mM
(§3) EDTA. After 5 min, the proper antibody labelled with europium chelate was added. After 60 more min, the fluorescence transfer was measured at λex=337 nm, λem=620 nm and λem=665 nm using a microplate reader (Envision, Perkin Elmer). The enzyme activity was determined by d ividing the signal measured at 665 nm by that measured at 620 nm (ratio). The results are expressed as a percent inhibition of the control enzyme activity. The standard inhibitory reference compound is staurosporine when not differently indicated (see tabl e below), which has been tested in each experiment at several concentrations to obtain an inhibition curve from which its IC 50 value is calculated.
(§4) • Assay volume and format: 10 µL in 384-well plate
(§5) • Compound addition: [100x] solution in solvent then [5x] solution in water • Maximum tolerable DMSO concentration: 1%

[5] = target: CDC2/CDK1 (h) (cycB) (Homo sapiens, UniProt P06493); assay: Kinase inhibitory assay (panel); type: biochemical; settings: read-out: % inhibition at 10 µM
Description: as §1, §2, §3, §4, §5

[6] = target: CHK2 (h) (Homo sapiens, UniProt O96017); assay: Kinase inhibitory assay (panel); type: biochemical; settings: read-out: % inhibition at 10 µM
Description: as §1, §2, §3, §4, §5

[7] = target: CaMK2alpha (h) (Homo sapiens, UniProt Q9UQM7); assay: Kinase inhibitory assay (panel); type: biochemical; settings: read-out: % inhibition at 10 µM
Description: as §1, §2, §3, §4, §5

[8] = target: JNK1 (h) (Homo sapiens, UniProt P45983); assay: Kinase inhibitory assay (panel); type: biochemical; settings: read-out: % inhibition at 10 µM
Description: as §1, §2, §3, §4, §5

[9] = target: Lck kinase (h) (Homo sapiens, UniProt P06239); assay: Kinase inhibitory assay (panel); type: biochemical; settings: read-out: % inhibition at 10 µM
Description: as §1, §2, §3, §4, §5

[10] = target: Pim2 kinase (h) (Homo sapiens, UniProt Q9P1W9); assay: Kinase inhibitory assay (panel); type: biochemical; settings: read-out: % inhibition at 10 µM
Description: as §1, §2, §3, §4, §5

[11] = target: SIK (h) (Homo sapiens, UniProt P57059); assay: Kinase inhibitory assay (panel); type: biochemical; settings: read-out: % inhibition at 10 µM
Description: as §1, §2, §3, §4, §5

[12] = target: c-Met kinase (h) (Homo sapiens, UniProt P08581); assay: Kinase inhibitory assay (panel); type: biochemical; settings: read-out: % inhibition at 10 µM
Description: as §1, §2, §3, §4, §5

[13] = target: p38alpha kinase (h) (Homo sapiens, UniProt Q16539); assay: Kinase inhibitory assay (panel); type: biochemical; settings: read-out: % inhibition at 10 µM
Description: as §1, §2, §3, §4, §5

T1 sequence (P26358 whole entry): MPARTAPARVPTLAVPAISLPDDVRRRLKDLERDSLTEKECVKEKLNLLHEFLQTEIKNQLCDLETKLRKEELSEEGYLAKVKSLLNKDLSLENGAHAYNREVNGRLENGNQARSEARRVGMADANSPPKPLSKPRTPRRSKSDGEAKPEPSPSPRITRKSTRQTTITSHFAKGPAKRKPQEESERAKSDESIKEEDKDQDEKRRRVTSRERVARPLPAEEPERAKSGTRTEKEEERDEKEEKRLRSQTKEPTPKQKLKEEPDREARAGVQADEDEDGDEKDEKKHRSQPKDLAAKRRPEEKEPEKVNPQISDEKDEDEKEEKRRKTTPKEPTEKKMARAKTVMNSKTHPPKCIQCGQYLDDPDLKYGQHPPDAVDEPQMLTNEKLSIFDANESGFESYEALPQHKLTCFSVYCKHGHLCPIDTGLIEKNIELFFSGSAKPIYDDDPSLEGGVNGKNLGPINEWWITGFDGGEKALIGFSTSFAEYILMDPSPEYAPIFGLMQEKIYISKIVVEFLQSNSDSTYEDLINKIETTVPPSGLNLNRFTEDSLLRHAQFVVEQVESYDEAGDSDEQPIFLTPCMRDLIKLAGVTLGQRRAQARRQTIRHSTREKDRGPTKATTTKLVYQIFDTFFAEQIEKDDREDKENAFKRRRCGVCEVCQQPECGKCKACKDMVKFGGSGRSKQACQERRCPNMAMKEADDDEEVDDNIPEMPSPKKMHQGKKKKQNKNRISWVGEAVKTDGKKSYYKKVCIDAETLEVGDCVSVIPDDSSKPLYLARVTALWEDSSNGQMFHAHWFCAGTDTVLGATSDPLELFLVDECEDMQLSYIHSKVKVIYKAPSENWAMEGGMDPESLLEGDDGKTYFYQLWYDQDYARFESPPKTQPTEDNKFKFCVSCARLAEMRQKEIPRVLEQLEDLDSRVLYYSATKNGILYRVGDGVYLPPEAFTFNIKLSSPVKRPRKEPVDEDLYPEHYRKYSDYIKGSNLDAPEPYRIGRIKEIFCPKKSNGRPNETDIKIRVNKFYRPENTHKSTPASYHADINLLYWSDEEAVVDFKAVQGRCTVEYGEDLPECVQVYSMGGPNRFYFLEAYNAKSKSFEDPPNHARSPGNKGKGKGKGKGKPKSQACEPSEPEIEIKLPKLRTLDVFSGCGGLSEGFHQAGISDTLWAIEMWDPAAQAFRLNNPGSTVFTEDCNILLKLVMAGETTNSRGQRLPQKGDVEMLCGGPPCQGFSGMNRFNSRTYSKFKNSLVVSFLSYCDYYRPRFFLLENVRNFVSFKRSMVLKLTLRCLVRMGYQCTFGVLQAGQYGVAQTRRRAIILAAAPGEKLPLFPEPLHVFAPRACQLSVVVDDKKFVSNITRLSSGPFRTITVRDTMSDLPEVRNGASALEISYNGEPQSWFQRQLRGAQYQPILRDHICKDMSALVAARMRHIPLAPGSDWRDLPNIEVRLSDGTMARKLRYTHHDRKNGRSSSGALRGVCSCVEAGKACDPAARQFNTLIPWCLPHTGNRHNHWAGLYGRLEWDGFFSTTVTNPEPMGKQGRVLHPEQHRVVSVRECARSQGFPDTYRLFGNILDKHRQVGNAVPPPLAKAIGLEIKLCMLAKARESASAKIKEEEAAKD
Chain of AurA/Aur2 kinase (h) (O14965 whole entry): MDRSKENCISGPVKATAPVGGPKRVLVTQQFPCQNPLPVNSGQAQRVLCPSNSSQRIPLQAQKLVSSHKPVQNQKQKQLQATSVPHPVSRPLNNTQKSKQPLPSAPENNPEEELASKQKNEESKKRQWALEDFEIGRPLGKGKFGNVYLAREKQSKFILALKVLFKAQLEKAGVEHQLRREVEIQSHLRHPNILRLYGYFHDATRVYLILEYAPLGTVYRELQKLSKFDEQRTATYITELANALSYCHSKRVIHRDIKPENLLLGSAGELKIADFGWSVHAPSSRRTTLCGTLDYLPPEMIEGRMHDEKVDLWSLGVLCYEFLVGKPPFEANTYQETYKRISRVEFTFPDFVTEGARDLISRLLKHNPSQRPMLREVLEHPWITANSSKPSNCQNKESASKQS
Chain of JNK1 (h) (P45983 whole entry): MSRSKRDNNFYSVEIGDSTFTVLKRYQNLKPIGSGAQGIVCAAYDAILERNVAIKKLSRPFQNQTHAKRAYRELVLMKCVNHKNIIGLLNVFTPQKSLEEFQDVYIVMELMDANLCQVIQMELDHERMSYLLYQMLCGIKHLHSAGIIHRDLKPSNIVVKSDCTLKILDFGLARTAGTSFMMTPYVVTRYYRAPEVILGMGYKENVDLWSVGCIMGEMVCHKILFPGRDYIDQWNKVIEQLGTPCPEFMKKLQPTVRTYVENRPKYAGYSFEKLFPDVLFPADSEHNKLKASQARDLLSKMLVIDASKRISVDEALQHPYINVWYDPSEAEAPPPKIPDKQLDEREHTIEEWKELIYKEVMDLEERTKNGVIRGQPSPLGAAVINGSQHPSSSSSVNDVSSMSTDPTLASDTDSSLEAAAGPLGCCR
Chain of p38alpha kinase (h) (Q16539 whole entry): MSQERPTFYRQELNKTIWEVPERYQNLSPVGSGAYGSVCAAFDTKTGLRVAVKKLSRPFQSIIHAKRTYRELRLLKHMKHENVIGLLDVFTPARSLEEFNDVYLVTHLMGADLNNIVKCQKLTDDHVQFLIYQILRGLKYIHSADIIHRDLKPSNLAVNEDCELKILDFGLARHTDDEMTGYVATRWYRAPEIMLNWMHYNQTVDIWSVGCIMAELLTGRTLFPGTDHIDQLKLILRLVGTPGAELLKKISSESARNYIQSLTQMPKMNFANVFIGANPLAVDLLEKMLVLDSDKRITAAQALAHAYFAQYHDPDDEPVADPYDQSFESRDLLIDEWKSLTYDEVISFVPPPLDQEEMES
Chain of Lck kinase (h) (P06239 whole entry): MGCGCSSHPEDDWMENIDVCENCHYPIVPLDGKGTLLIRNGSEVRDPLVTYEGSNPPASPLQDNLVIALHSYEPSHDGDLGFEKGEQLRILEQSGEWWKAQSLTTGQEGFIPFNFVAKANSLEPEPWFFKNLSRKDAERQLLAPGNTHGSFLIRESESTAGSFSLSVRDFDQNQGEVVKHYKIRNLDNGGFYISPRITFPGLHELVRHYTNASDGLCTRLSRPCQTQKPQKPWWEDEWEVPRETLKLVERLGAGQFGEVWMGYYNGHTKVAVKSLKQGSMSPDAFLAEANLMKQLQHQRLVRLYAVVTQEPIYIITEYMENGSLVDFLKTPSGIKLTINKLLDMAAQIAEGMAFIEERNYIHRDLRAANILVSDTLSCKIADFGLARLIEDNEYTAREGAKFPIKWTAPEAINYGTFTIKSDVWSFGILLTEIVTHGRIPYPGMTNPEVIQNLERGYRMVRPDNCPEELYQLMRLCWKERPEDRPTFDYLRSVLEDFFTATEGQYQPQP
Chain of CDC2/CDK1 (h) (cycB) (P06493 whole entry): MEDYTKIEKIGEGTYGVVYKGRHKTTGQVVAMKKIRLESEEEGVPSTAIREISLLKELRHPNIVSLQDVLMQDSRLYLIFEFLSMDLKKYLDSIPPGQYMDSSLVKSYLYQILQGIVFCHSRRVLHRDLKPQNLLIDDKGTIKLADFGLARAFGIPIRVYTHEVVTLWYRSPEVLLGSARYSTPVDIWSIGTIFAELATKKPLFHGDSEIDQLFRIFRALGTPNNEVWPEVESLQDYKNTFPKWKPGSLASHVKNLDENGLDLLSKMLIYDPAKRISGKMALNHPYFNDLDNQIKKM
Chain of CDC2/CDK1 (h) (cycB) (P14635 whole entry partner): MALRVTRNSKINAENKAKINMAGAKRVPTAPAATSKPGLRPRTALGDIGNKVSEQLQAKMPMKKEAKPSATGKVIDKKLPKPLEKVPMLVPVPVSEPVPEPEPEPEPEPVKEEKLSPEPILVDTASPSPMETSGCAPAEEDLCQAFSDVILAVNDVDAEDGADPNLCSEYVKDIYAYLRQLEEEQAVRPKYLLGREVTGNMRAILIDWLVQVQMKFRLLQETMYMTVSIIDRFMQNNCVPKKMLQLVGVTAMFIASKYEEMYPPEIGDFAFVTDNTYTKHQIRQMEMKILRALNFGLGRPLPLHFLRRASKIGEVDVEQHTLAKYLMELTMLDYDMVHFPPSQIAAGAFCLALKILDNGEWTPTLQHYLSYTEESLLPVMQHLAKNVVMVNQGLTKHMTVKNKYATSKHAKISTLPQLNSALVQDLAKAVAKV
Chain of SIK (h) (P57059 whole entry): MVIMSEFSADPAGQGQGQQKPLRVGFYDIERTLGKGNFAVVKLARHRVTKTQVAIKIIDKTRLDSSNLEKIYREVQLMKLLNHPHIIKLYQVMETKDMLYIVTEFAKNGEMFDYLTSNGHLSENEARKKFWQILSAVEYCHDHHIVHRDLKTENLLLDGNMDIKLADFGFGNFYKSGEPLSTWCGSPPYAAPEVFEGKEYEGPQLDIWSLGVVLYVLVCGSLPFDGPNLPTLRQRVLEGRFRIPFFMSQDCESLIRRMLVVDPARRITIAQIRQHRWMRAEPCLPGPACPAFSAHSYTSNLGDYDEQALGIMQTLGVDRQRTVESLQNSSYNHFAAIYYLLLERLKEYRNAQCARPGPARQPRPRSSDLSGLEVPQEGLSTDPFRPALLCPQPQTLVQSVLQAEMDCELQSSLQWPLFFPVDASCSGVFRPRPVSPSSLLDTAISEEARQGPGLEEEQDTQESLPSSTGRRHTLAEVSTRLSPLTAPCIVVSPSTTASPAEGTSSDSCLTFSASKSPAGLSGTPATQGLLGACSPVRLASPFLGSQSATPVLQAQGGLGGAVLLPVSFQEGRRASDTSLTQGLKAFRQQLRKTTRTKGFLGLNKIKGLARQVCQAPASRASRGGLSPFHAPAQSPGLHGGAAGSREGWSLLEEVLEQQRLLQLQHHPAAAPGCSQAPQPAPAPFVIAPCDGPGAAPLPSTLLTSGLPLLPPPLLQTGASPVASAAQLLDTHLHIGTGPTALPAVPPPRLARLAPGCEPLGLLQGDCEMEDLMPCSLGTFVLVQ

`O=C(Nc1cccc(NC(=O)c2ccc(Nc3ccnc4ccccc34)cc2)c1)OCc1ccccc1` [Compound 4c] was tested, and the IC50 [1] was 9.6 µM and the “pUCHL1 demethylation, EGFP-positive cells (FACS R1)” value ([2]; HCT116, 0.5 µM) was 58.7%.
Work on `O=C(Nc1cccc(Nc2ccnc3ccccc23)c1)c1cccc(Nc2ccnc3ccccc23)c1` [Compound 2b] yielded an IC50 [1] of 3.3 µM.
`O=C(Nc1cccc(Nc2ccnc3ccccc23)c1)c1ccc(Nc2ccnc3ccccc23)cc1` [Compound 2c] was tested, and the EC50 [3] was 22 ± 3 µM and the “pUCHL1 demethylation, EGFP-positive cells (FACS R1)” value ([2]; HCT116, 0.1 µM) was 42.3%.
`O=C(Nc1ccc(Nc2ccnc3ccccc23)cc1)c1cccc(Nc2ccnc3ccccc23)c1` [Compound 2a] gave an EC50 [3] of 23 ± 4 µM, an inhibition at 10 µM [4] of -20% and an inhibition at 10 µM [5] of 16%. The inhibition at 10 µM [6] was -195%, the inhibition at 10 µM [7] was -99% and the inhibition at 10 µM [8] was -91%. It also gave an inhibition at 10 µM [9] of 23%, an inhibition at 10 µM [10] of -51% and an inhibition at 10 µM [11] of 22%. The inhibition at 10 µM [12] was -54% and the inhibition at 10 µM [13] was -64%.
